Laboratory results taken from ChEMBL document CHEMBL1156829 (Proc Natl Acad Sci U S A, 2008).

Experiments:
Plasmodium falciparum [1] = assay: NOVARTIS: Inhibition of Plasmodium falciparum 3D7 (drug-susceptible) proliferation in erythrocyte-based infection assay; format: functional, organism-based; details: Plasmodium falciparum, 3D7
[2] = NOVARTIS: Cytotoxicity against human hepatocellular carcinoma cell line (Huh7); format: toxicity, cell-based, Huh-7; details: Huh7 cells (hepatocellular carcinoma cell line)
Plasmodium falciparum [3] = assay: NOVARTIS: Inhibition of Plasmodium falciparum W2 (drug-resistant) proliferation in erythrocyte-based infection assay; format: functional, organism-based; details: Plasmodium falciparum, W2; read-out: EC50

Brc1cc(Br)c2c(-c3ccccc3)n(-c3ccccc3)nc(-c3ccccc3)c1-2
EC50 (Plasmodium falciparum [1]): 753 nM
CC50 [2]: > 10000 nM
EC50 (Plasmodium falciparum [3]): > 1710 nM

O=C(Nc1nccs1)c1cc(-c2cccnc2)nc2ccc(Br)cc12
EC50 (Plasmodium falciparum [1]): 1080 nM
CC50 [2]: > 100000 nM
EC50 (Plasmodium falciparum [3]): > 10400 nM

COc1ccc(OC)c(NC(=O)c2cnn3c(C(F)(F)F)cc(-c4ccc(OC)c(OC)c4)nc23)c1
EC50 (Plasmodium falciparum [1]): > 1250 nM
CC50 [2]: > 10000 nM
EC50 (Plasmodium falciparum [3]): 1140 nM

COc1ccc(-c2cc(C(F)(F)F)n3ncc(C(=O)Nc4cc(C)ccc4O)c3n2)cc1OC
EC50 (Plasmodium falciparum [1]): 3350 nM
CC50 [2]: > 100000 nM
EC50 (Plasmodium falciparum [3]): 2130 nM

S=C(Nc1ccccc1)N1CCCN(c2nc3ccc(Cl)cc3s2)CC1
EC50 (Plasmodium falciparum [1]): 506 nM
CC50 [2]: > 86900 nM
EC50 (Plasmodium falciparum [3]): 370 nM

CCOc1cc(C2CC(=O)NC3=C2C(=O)CC(c2ccc(OC)c(OC)c2)C3)ccc1O (stereo not given)
EC50 (Plasmodium falciparum [1]): 781 nM
CC50 [2]: > 100000 nM
EC50 (Plasmodium falciparum [3]): 155 nM

Cc1c(C=O)c2ccccc2n1CC(=O)Nc1cccc(I)c1
EC50 (Plasmodium falciparum [1]): 365 nM
CC50 [2]: > 61200 nM
EC50 (Plasmodium falciparum [3]): 405 nM

Cc1ccc(-c2cn3ccccc3[n+]2-c2ccccc2)cc1
EC50 (Plasmodium falciparum [1]): 214 nM
CC50 [2]: 51700 nM
EC50 (Plasmodium falciparum [3]): 817 nM

Cc1ccc(S(=O)(=O)c2c(COC(=O)c3cccc(C)c3)c(-c3ccccc3)nn2C)cc1
EC50 (Plasmodium falciparum [1]): 8400 nM
CC50 [2]: > 100000 nM
EC50 (Plasmodium falciparum [3]): 6970 nM

Cc1cc(C)c2c(c1)OC(N)(C(Cl)(Cl)Cl)CC2=O (stereo not given)
EC50 (Plasmodium falciparum [1]): 435 nM
CC50 [2]: > 100000 nM
EC50 (Plasmodium falciparum [3]): 260 nM

CCOC(=O)c1sc(Nc2c(Cl)cc(S(N)(=O)=O)cc2Cl)nc1C
EC50 (Plasmodium falciparum [1]): > 1250 nM
CC50 [2]: > 10000 nM
EC50 (Plasmodium falciparum [3]): 411 nM

Cc1cc(C)c2c(c1)-c1c(ssc1=S)C(C)(C)N2C(=O)c1ccccc1
EC50 (Plasmodium falciparum [1]): 523 nM
CC50 [2]: > 100000 nM
EC50 (Plasmodium falciparum [3]): 370 nM

O=C1N(Cc2cc3ccccc3s2)CC2CN(Cc3cccc4c3OCO4)CCN12 (stereo not given)
EC50 (Plasmodium falciparum [1]): 727 nM
CC50 [2]: > 10000 nM
EC50 (Plasmodium falciparum [3]): < 0.572 nM

CC(C)c1ccc(NC(=O)C=Cc2ccccc2Cl)cc1
EC50 (Plasmodium falciparum [1]): 102 nM
CC50 [2]: 17500 nM
EC50 (Plasmodium falciparum [3]): 45.6 nM

COc1ccc(C2CC(=O)C3=C(C2)NC(C)=C(C(=O)OC2CCCC2)C3c2ccccc2)cc1 (stereo not given)
EC50 (Plasmodium falciparum [1]): 124 nM
CC50 [2]: > 100000 nM
EC50 (Plasmodium falciparum [3]): 33.5 nM

Cc1n(N)c2ccccc2[n+]1CC(=O)c1ccccc1
EC50 (Plasmodium falciparum [1]): 2900 nM
CC50 [2]: > 100000 nM
EC50 (Plasmodium falciparum [3]): 1750 nM

CCn1c(SCCNC(=O)CC(C)C)nc(-c2ccccc2)c1-c1ccccc1
EC50 (Plasmodium falciparum [1]): > 1250 nM
CC50 [2]: > 9920 nM
EC50 (Plasmodium falciparum [3]): > 922 nM

OCCCCCCCCCCC[n+]1ccccc1
EC50 (Plasmodium falciparum [1]): 133 nM
CC50 [2]: > 100000 nM
EC50 (Plasmodium falciparum [3]): 365 nM

Cc1ccc(-c2cc(-c3cc(Cl)ccc3O)on2)cc1
EC50 (Plasmodium falciparum [1]): > 798 nM
CC50 [2]: > 10000 nM
EC50 (Plasmodium falciparum [3]): 472 nM

CCCCCCOc1ccc(C(C)=NNC2=NCCN2)cc1[N+](=O)[O-]
EC50 (Plasmodium falciparum [1]): 228 nM
CC50 [2]: 7320 nM
EC50 (Plasmodium falciparum [3]): 791 nM

COc1cc(-c2cc(C(F)(F)F)n3ncc(C(=O)Nc4cc(C)ccc4O)c3n2)cc(OC)c1OC
EC50 (Plasmodium falciparum [1]): 180 nM
CC50 [2]: > 100000 nM
EC50 (Plasmodium falciparum [3]): 70 nM

COC(=O)C1=CN(Cc2ccc(OC)cc2)C=C(C(=O)OC)C1c1cccs1
EC50 (Plasmodium falciparum [1]): 5640 nM
CC50 [2]: > 100000 nM
EC50 (Plasmodium falciparum [3]): 602 nM

COc1ccccc1Cn1c(SCc2ccc(Cl)cc2)nc2ccc(Br)cc2c1=O
EC50 (Plasmodium falciparum [1]): > 1160 nM
CC50 [2]: > 10000 nM
EC50 (Plasmodium falciparum [3]): > 1050 nM

N=C(N)NN=Cc1cccc(OCc2ccc(Cl)c(Cl)c2)c1
EC50 (Plasmodium falciparum [1]): 1990 nM
CC50 [2]: > 10000 nM
EC50 (Plasmodium falciparum [3]): 1690 nM

CCOP1(=O)COc2ccccc2OC1
EC50 (Plasmodium falciparum [1]): > 1140 nM
CC50 [2]: > 10000 nM
EC50 (Plasmodium falciparum [3]): > 1380 nM

CN(C)CCNc1ccc2ncc(-c3ccsc3)n2n1
EC50 (Plasmodium falciparum [1]): > 1250 nM
CC50 [2]: > 10000 nM
EC50 (Plasmodium falciparum [3]): > 846 nM

COc1ccc(NC(=O)Cn2c(-c3ccc(OC)cc3)cn(-c3ccc(C)cc3)c2=O)cc1
EC50 (Plasmodium falciparum [1]): 889 nM
CC50 [2]: > 10000 nM
EC50 (Plasmodium falciparum [3]): > 676 nM

Cc1cc(NC(=O)c2ccc(S(=O)(=O)N(Cc3ccccc3)C(C)C)cc2)no1
EC50 (Plasmodium falciparum [1]): 2690 nM
CC50 [2]: > 100000 nM
EC50 (Plasmodium falciparum [3]): 538 nM

CC[n+]1c(/C=C/C=C2\N(C)c3ccccc3C2(C)C)n(-c2ccccc2)c2cc(Cl)ccc21
EC50 (Plasmodium falciparum [1]): 287 nM
CC50 [2]: 1690 nM
EC50 (Plasmodium falciparum [3]): 530 nM

CCCCCCc1cc(O)c2c(c1)OC(C)(C)C1=C2CCN(C)C1
EC50 (Plasmodium falciparum [1]): 48.4 nM
CC50 [2]: 20600 nM
EC50 (Plasmodium falciparum [3]): 31.3 nM

CCCC(C(=O)NCCC(C)C)N(C(=O)c1snc(C(N)=O)c1N)c1ccc(C(C)C)cc1 (stereo not given)
EC50 (Plasmodium falciparum [1]): 5440 nM
CC50 [2]: > 100000 nM
EC50 (Plasmodium falciparum [3]): > 12500 nM

CSc1nnc(CCNC(=O)c2c(-c3ccccc3)noc2C)n1-c1ccc(F)cc1
EC50 (Plasmodium falciparum [1]): > 12500 nM
CC50 [2]: > 100000 nM
EC50 (Plasmodium falciparum [3]): 2410 nM

COc1ccccc1N1CCN(Cc2cc(C)c(C)cc2O)CC1
EC50 (Plasmodium falciparum [1]): 383 nM
CC50 [2]: 58000 nM
EC50 (Plasmodium falciparum [3]): 80.5 nM

CC[n+]1c(/C=C/C=C2\N(C)c3ccccc3C2(C)C)n(Cc2ccccc2)c2ccccc21
EC50 (Plasmodium falciparum [1]): 355 nM
CC50 [2]: 2420 nM
EC50 (Plasmodium falciparum [3]): 219 nM

c1ccc(-c2cc(N3CCC4(CC3)OCCO4)nc(-c3ccccn3)n2)nc1
EC50 (Plasmodium falciparum [1]): 420 nM
CC50 [2]: > 10000 nM
EC50 (Plasmodium falciparum [3]): 223 nM
